Data as given in US20200338056A1, “INDUCTION OF SENESCENCE USING PROTON PUMP INHIBITORS” (THE METHODIST HOSPITAL SYSTEM, priority 2016, published 2020).

Test system: Human microvascular endothelial cells (ECs)
Test: Senescence-associated β-galactosidase (SA-β-gal) staining with SYTO cell count
Assay type: cell-based
Protocol: Cell culture. Human microvascular endothelial cells (ECs) purchased from Lonza (cat # CC-2543, Basel, Switzerland) were cultured continuously for three passages from passage (P) 4 to P6 in the presence of clinically relevant doses of esomeprazole or vehicle (DMSO) (Shin J M, Kim N. Pharmacokinetics and pharmacodynamics of the proton pump inhibitors. Journal of neurogastroenterology and motility. 2013; 19:25-35). All in vitro experiments were performed at P6 upon confluency. ECs were cultured and maintained in EBM-2 Basal Medium (cat # CC-3156, Lonza, Basel, Switzerland) supplemented with EGM-2 MV SingleQuots™ Kit—growth factors, cytokines, and antibiotics (cat # CC-4147, Lonza, Basel, Switzerland).
Senescence-associated β-galactosidase (SA-β-gal) staining. Senescence of ECs was measured using the Cellular Senescence Assay kit from Cell Biolabs, Inc. (Cat: CBA-230, San Diego, Calif.). The protocol was performed according to the manufacturer's guide. Briefly, Ecs treated continuously for 3 passages with esomeprazole or vehicle were plated in a 6 well plate. Upon confluency, cells were initially fixed and later incubated with SA-β-gal working solution for 16 hours in a non-humidified CO2 free incubator at 37° C. After incubation the cells were counter stained with SYTO® GREEN fluorescent nucleic acid stain (Life Technologies). Several random images per well were taken using light and fluorescent microscope. The SA-β-gal positive cells were counted manually and total cell number per field was quantified using NIH ImageJ software.

[1] = chronic treatment, at P6, vs vehicle

With Cc1nc2c(OCc3ccccc3)cccn2c1CC#N [SCH-28080] the “endothelial senescence / aging (overall finding)” value (chronic exposure of human ECs) was “accelerated”, the SA-β-gal-positive cells [1] was “increased” and the “total cell count per microscopic field (SYTO-green staining)” value [1] was “decrease”.
